Experimental data from publication PMC4457528, “Identification of Novel Small Molecule Inhibitors of Oncogenic RET Kinase” (PLoS ONE, 2015).
Where two headings read alike, the source gives them in different places.

How the values were obtained:
Assay in all cases: KinomeScan kinase panel, single concentration 10 µM
Type in all cases: binding
KinomeScan kinase panel [1] = biological target: T1, KinomeScan kinase panel (Homo sapiens, UniProt P10721, T670I/V559D); settings: KIT(V559D.T670I), 10 µM; read-out: score (%)
T1 construct: purchased DiscoveRx (KinomeScan)

KinomeScan kinase panel [2] = biological target: T2, KinomeScan kinase panel (Homo sapiens, UniProt P48736); settings: PIK3CG, 10 µM; read-out: score (%)
T2 construct: purchased DiscoveRx (KinomeScan)
T2 sequence (P48736 whole entry): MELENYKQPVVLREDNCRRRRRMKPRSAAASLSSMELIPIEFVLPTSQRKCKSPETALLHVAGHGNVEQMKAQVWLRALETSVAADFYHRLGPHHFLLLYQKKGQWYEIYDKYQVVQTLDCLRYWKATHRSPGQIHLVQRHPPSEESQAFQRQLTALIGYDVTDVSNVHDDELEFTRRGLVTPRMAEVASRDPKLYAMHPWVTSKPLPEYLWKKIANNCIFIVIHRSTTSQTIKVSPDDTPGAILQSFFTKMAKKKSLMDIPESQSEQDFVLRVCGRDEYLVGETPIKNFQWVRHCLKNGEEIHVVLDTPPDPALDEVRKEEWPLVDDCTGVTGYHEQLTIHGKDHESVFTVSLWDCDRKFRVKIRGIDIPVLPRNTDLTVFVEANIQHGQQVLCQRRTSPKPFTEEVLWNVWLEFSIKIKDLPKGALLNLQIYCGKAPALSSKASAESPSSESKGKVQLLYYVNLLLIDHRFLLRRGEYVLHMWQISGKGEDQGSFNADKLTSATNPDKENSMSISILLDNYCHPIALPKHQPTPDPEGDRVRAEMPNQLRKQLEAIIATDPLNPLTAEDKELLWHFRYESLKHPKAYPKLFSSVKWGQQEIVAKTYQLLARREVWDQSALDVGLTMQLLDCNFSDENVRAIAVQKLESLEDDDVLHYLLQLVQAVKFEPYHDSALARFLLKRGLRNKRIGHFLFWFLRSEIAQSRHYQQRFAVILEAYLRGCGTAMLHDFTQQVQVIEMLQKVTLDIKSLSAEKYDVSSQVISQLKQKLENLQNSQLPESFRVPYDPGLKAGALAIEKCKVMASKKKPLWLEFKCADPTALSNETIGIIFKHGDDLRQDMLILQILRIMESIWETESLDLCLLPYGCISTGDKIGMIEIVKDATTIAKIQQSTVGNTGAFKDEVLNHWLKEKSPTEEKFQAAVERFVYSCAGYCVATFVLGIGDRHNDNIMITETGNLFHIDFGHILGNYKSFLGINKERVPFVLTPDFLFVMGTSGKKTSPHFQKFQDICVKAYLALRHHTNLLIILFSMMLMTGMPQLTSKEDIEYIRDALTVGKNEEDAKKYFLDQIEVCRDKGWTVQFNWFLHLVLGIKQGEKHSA

KinomeScan kinase panel [3] = biological target: T3, KinomeScan kinase panel (Homo sapiens, UniProt O94806); settings: read-out: score (%)
T3 construct: purchased DiscoveRx (KinomeScan)
T3 sequence (O94806 1-890): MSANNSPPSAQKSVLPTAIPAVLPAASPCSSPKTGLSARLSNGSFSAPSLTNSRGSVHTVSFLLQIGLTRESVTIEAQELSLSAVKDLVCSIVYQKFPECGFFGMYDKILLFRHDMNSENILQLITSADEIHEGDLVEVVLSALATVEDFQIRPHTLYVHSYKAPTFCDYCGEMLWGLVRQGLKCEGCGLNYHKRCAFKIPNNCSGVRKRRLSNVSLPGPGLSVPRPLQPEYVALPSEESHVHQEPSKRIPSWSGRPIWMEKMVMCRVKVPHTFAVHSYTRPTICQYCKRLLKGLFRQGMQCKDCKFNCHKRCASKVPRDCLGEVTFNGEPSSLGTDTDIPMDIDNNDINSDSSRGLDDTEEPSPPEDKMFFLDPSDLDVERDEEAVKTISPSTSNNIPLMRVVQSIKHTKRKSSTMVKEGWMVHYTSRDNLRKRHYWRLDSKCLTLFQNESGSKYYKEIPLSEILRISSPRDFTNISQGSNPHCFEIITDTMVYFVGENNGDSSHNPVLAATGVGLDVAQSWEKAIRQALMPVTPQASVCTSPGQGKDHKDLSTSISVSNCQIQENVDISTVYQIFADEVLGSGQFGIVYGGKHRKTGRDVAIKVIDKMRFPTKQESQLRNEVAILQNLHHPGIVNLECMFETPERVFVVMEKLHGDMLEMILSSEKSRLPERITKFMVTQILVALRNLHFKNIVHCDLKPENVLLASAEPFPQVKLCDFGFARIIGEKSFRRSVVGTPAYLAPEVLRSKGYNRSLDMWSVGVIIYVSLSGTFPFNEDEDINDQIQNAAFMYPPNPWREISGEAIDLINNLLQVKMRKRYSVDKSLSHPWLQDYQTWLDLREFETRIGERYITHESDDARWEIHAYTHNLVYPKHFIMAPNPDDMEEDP

KinomeScan kinase panel [4] = biological target: T4, KinomeScan kinase panel (Homo sapiens, UniProt O00750); settings: PIK3C2B, 10 µM; read-out: score (%)
T4 construct: purchased DiscoveRx (KinomeScan)

KinomeScan kinase panel [5] = biological target: T5, KinomeScan kinase panel (Homo sapiens, UniProt P57078); settings: read-out: score (%)
T5 construct: purchased DiscoveRx (KinomeScan)
T5 sequence (P57078 1-832): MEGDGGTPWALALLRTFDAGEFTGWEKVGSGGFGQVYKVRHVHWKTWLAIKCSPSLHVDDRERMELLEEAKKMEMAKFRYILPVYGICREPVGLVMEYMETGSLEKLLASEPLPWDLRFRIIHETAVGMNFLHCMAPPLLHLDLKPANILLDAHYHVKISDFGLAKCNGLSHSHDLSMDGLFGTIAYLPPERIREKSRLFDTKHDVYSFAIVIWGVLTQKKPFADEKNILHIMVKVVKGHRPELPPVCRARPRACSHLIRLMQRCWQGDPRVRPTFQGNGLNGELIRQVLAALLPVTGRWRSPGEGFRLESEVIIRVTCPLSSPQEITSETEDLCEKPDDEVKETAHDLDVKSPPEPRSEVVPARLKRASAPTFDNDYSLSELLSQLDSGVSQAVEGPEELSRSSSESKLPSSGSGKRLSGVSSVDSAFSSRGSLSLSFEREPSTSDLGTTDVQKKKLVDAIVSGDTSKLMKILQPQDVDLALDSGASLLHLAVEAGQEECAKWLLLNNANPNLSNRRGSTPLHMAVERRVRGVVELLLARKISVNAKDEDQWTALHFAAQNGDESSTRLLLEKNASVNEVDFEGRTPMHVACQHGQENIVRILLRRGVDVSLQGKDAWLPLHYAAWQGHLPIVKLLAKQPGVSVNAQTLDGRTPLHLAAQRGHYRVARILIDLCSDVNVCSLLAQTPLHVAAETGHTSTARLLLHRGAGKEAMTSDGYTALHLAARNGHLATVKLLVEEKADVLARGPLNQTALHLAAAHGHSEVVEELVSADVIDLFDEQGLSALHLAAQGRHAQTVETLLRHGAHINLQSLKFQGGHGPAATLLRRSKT

KinomeScan kinase panel [6] = biological target: T6, KinomeScan kinase panel (Homo sapiens, UniProt P14616); settings: INSRR, 10 µM; read-out: score (%)
T6 construct: purchased DiscoveRx (KinomeScan)

KinomeScan kinase panel [7] = biological target: T7, KinomeScan kinase panel (Homo sapiens, UniProt O14578); settings: CIT, 10 µM
T7 construct: purchased DiscoveRx (KinomeScan)
T7 sequence (O14578 whole entry): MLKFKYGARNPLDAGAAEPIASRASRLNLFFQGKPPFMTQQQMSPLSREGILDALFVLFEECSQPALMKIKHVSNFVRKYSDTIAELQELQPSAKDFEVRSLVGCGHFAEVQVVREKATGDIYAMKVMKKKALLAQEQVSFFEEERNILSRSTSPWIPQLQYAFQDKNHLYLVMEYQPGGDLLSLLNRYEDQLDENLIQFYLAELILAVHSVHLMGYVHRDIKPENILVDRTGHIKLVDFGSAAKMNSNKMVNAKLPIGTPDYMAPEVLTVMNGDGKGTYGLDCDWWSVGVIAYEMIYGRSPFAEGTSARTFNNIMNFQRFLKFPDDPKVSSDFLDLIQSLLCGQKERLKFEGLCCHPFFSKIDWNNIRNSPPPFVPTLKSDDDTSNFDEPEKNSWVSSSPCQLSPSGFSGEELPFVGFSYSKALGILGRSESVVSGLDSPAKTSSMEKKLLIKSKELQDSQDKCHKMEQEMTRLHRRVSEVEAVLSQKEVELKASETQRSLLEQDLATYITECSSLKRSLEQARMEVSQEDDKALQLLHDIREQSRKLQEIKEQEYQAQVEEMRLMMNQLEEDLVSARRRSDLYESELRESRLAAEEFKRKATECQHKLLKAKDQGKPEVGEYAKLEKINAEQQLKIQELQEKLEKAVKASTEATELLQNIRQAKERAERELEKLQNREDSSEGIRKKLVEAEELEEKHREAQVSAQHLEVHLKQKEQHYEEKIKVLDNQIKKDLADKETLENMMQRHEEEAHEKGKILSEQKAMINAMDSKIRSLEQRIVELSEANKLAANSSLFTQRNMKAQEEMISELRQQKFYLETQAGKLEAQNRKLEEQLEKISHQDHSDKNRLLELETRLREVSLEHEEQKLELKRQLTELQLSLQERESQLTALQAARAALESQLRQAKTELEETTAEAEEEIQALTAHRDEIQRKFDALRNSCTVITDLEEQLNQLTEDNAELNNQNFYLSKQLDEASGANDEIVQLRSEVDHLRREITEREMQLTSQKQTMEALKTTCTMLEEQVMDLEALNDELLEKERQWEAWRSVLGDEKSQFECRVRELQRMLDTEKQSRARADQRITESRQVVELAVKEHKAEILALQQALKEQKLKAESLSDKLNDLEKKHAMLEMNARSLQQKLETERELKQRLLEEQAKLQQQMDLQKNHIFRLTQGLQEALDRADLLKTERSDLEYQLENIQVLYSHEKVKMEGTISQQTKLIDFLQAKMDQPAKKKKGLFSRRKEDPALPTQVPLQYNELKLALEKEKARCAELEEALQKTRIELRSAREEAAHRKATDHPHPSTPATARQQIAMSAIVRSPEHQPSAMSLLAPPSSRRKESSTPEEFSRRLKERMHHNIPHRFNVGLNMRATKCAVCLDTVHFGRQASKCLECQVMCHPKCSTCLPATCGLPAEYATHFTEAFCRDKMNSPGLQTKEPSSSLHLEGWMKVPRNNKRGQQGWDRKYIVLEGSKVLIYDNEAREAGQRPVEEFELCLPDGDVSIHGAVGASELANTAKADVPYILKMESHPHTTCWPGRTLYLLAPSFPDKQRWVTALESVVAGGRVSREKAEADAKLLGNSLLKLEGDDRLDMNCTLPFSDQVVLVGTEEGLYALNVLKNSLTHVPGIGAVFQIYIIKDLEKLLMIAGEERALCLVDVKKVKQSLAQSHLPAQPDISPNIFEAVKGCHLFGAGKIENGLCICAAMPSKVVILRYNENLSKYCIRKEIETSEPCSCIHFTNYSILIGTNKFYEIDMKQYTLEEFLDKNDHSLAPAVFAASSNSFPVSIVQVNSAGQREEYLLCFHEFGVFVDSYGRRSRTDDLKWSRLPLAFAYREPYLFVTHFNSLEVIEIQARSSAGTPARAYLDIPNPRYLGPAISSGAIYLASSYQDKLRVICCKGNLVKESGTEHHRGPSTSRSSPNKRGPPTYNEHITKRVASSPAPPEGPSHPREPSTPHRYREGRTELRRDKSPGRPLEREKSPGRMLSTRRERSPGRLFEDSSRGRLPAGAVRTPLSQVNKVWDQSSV

KinomeScan kinase panel [8] = biological target: T8, KinomeScan kinase panel (Homo sapiens, UniProt P49137); settings: MAPKAPK2, 10 µM; read-out: score (%)
T8 construct: purchased DiscoveRx (KinomeScan)
T8 sequence (P49137 whole entry): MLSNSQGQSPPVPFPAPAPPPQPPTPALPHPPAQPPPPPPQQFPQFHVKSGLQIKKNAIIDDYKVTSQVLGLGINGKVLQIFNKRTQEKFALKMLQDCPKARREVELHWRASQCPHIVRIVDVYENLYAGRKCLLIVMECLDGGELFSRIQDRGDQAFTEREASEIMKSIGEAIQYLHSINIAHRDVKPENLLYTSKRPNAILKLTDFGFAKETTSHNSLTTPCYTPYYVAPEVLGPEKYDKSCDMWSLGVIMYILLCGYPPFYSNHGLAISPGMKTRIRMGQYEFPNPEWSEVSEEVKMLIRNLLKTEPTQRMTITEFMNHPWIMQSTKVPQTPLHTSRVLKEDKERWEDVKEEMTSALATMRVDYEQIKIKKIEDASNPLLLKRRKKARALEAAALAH

KinomeScan kinase panel [9] = biological target: T9, KinomeScan kinase panel (Homo sapiens, UniProt Q9H2G2); settings: 10 µM, read-out: score (%)
T9 construct: purchased DiscoveRx (KinomeScan)
T9 sequence (Q9H2G2 whole entry): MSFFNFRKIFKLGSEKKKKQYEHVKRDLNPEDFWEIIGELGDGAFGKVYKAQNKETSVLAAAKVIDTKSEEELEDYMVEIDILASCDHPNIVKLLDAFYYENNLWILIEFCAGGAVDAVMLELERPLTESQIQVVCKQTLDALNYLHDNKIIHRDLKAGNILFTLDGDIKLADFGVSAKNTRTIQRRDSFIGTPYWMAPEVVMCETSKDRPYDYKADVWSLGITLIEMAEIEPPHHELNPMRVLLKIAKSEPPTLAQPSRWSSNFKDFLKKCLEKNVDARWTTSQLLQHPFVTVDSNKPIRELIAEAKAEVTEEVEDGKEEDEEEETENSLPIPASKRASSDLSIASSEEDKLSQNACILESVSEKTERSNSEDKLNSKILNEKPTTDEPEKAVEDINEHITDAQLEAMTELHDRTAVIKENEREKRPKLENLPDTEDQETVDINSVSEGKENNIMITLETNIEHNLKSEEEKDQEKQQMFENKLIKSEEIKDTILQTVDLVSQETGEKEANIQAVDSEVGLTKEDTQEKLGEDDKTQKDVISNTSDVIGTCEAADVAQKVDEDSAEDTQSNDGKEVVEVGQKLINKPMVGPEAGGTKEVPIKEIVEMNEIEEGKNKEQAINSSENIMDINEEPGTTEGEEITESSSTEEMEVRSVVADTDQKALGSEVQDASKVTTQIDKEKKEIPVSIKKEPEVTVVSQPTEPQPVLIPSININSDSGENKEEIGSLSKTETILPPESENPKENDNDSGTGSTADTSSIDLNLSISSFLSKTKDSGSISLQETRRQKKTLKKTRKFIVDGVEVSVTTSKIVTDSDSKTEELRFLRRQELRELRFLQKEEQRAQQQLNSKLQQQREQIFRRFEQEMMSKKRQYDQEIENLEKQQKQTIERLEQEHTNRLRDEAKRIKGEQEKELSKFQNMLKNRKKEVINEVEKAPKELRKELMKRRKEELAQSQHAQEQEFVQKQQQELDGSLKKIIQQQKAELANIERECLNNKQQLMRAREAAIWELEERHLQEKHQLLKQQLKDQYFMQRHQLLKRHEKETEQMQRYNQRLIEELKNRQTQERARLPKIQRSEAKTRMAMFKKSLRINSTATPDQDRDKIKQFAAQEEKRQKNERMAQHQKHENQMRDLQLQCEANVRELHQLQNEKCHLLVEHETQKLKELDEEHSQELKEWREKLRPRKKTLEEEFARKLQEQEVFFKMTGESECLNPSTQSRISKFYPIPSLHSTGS

KinomeScan kinase panel [10] = biological target: T10, KinomeScan kinase panel (Homo sapiens, UniProt Q7KZI7); settings: MARK2, 10 µM; read-out: score (%)
T10 construct: purchased DiscoveRx (KinomeScan)

KinomeScan kinase panel [11] = biological target: T11, KinomeScan kinase panel (Homo sapiens, UniProt P21802); settings: FGFR2, 10 µM; read-out: score (%)
T11 construct: purchased DiscoveRx (KinomeScan)

KinomeScan kinase panel [12] = biological target: T12, KinomeScan kinase panel (Homo sapiens, UniProt Q15759); settings: p38-beta, 10 µM; read-out: score (%)
T12 construct: purchased DiscoveRx (KinomeScan)
T12 sequence (Q15759 whole entry): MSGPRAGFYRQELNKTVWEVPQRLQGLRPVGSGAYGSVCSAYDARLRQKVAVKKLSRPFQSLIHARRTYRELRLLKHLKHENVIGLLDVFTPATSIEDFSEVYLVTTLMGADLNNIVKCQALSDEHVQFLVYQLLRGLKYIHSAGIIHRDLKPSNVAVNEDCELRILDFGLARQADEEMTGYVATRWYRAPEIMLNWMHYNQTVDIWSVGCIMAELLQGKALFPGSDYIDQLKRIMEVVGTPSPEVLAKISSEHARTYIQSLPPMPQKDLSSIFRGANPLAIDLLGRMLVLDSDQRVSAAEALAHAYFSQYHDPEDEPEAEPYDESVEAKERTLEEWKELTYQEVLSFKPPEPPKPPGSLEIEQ

KinomeScan kinase panel [13] = biological target: T13, KinomeScan kinase panel (Homo sapiens, UniProt Q99755); settings: PIP5K1A, 10 µM; read-out: score (%)
T13 construct: purchased DiscoveRx (KinomeScan)

KinomeScan kinase panel [14] = biological target: T14, KinomeScan kinase panel (Homo sapiens, UniProt O43293); settings: DAPK3, 10 µM; read-out: score (%)
T14 construct: purchased DiscoveRx (KinomeScan)

KinomeScan kinase panel [15] = biological target: T15, KinomeScan kinase panel (Homo sapiens, UniProt Q9BVS4); settings: read-out: score (%)
T15 construct: purchased DiscoveRx (KinomeScan)

KinomeScan kinase panel [16] = biological target: T16, KinomeScan kinase panel (Homo sapiens, UniProt Q96Q40); settings: PFTAIRE2, 10 µM; read-out: score (%)
T16 construct: purchased DiscoveRx (KinomeScan)

| remaining binding at 10 µM (KinomeScan kinase panel [9]; SLK) [%] | Compound | remaining binding at 10 µM (KinomeScan kinase panel [1]) [%] | remaining binding at 10 µM (KinomeScan kinase panel [2]) [%] | remaining binding at 10 µM (KinomeScan kinase panel [3]; PRKD3, 10 µM) [%] | remaining binding at 10 µM (KinomeScan kinase panel [4]) [%] | remaining binding at 10 µM (KinomeScan kinase panel [5]; RIPK4, 10 µM) [%] | remaining binding at 10 µM (KinomeScan kinase panel [6]) [%] | score (%) (KinomeScan kinase panel [7]) | remaining binding at 10 µM (KinomeScan kinase panel [8]) [%] | remaining binding at 10 µM (KinomeScan kinase panel [9]; kinase SLK) [%] | remaining binding at 10 µM (KinomeScan kinase panel [10]) [%] | remaining binding at 10 µM (KinomeScan kinase panel [11]) [%] | remaining binding at 10 µM (KinomeScan kinase panel [12]) [%] | remaining binding at 10 µM (KinomeScan kinase panel [13]) [%] | remaining binding at 10 µM (KinomeScan kinase panel [14]) [%] | remaining binding at 10 µM (KinomeScan kinase panel [15]; RIOK2, 10 µM) [%] | remaining binding at 10 µM (KinomeScan kinase panel [16]) [%] | remaining binding at 10 µM (KinomeScan kinase panel [3]; kinase PRKD3, 10 µM) [%] | remaining binding at 10 µM (KinomeScan kinase panel [5]; kinase RIPK4, 10 µM) [%] | remaining binding at 10 µM (KinomeScan kinase panel [15]; kinase RIOK2, 10 µM) [%] |
| --- | --- | --- | --- | --- | --- | --- | --- | --- | --- | --- | --- | --- | --- | --- | --- | --- | --- | --- | --- | --- |
| – | CCN1CCN(Cc2ccc(NC(=O)c3ccc(C)c(NC(=O)c4cncc(-c5cccs5)c4)c3)cc2C(F)(F)F)CC1 [ALW-II-41-27] | 0.05 | > 30 | > 30 | > 30 | > 30 | 8.8 | 14 | > 30 | 5 | > 30 | 4.3 | 0 | > 30 | > 30 | > 30 | > 30 | – | – | – |
| 0.85 | CCN1CCN(Cc2ccc(NC(=O)c3ccc(C)c(/C=C/c4cnc5[nH]ccc5c4Cl)c3)cc2C(F)(F)F)CC1 [HG-6-63-01, (E)-3-(2-(4-chloro-1H-pyrrolo[2,3-b]pyridin-5-yl)vinyl)-N-(4-((4-ethylpiperazin-1-yl)methyl)-3-(trifluoromethyl)phenyl)-4-methylbenzamide] | 0 | > 30 | > 30 | > 30 | > 30 | > 30 | 0.2 | > 30 | – | > 30 | 1.6 | 0 | 15 | > 30 | 33 | > 30 | – | – | – |
| – | CCN1CCN(Cc2ccc(NC(=O)c3ccc(C)c(C#Cc4cccnc4)c3)cc2C(F)(F)F)CC1 [XMD15-44] | 0 | 100 | – | 100 | – | > 30 | 0 | > 30 | 0.1 | > 30 | 0.5 | 0 | 79 | > 30 | – | 6.4 | 22 | 48 | 0.5 |
